Experimental data published in patent US9233927B2 (TEVA PHARMACEUTICAL INDUSTRIES, LTD., priority 2013, dated 2016).
Like-named read-outs stand apart in the source and are kept apart here.

How the values were obtained:
[1] = Particle size distribution by Malvern laser diffraction (Mastersizer S); type: physicochemical; conditions: for D(0.9), PSD by Malvern / d(0.1), PSD by Malvern / d(0.5), PSD by Malvern: Modified Pilot Scale, 2.5 kg batch
Experimental: The particle size distributions were measured by Malvern Laser Diffraction, using the Mastersizer S model. Laser diffraction relies on the fact that diffraction angle of light is inversely proportional to particle size. Properties of particles are measured and interpreted as measurements of a sphere (a sphere being the only shape that can be described by one unique number). In addition, laser diffraction calculates a particle size distribution based around volume terms, thus eliminating particle count from the determination of particle size. The Mastersizer S model measures particles using a single technique and a single range setting.
D(0.1) is the particle size, in microns, below which 10% by volume distribution of the population is found. D(0.5) is the particle size, in microns, below which 50% by volume distribution of the population is found. D(0.9) is the particle size, in microns, below which 90% by volume distribution of the population is found.

[2] = prior art U.S. Pat. No. 7,884,208; cited from earlier work
[3] = prior art U.S. Pat. No. 7,884,208, cited from earlier work
[4] = test system: acute experimental autoimmune encephalomyelitis (aEAE) model; conditions: U.S. Pat. No. 6,077,851; cited from earlier work
[5] = Production scale crystallization
[6] = Laboratory scale crystallization, 25 g crude
[7] = starting material of pilot scale process

SMILES: CCN(C(=O)c1c([O-])c2c(Cl)cccc2n(C)c1=O)c1ccccc1.[Na+] [Batch C]
- PSD D(0.1) [1, 5]: 4.1 μm
- PSD D(0.5) [1, 5]: 14.0 μm
- PSD D(0.9) [1, 5]: 32.0 μm

SMILES: CCN(C(=O)c1c([O-])c2c(Cl)cccc2n(C)c1=O)c1ccccc1.[Na+] [Batch E]
- PSD D(0.1) [1, 5]: 2.5 μm
- PSD D(0.5) [1, 5]: 9.5 μm
- PSD D(0.9) [1, 5]: 21.0 μm

SMILES: CCN(C(=O)c1c([O-])c2c(Cl)cccc2n(C)c1=O)c1ccccc1.[Na+] [Example 13 of U.S. Pat. No. 7,884,208]
- Tapped Density (in words) [2]: high

SMILES: CCN(C(=O)c1c([O-])c2c(Cl)cccc2n(C)c1=O)c1ccccc1.[Na+] [Example 14 of U.S. Pat. No. 7,884,208]
- size of 10% or more of the total amount by volume of the particles [3]: less than 5 microns
- Tapped Density (in words) [2]: undesired

SMILES: CCN(C(=O)c1c([O-])c2c(Cl)cccc2n(C)c1=O)c1ccccc1.[Na+] [Example 15 from U.S. Pat. No. 7,884,208]
- D(0.9), PSD by Malvern ([3]; Laboratory Scale 25 g batch): 51.8 um
- d(0.1), PSD by Malvern ([3]; Laboratory Scale 25 g batch): 6.1 um
- d(0.5), PSD by Malvern ([3]; Laboratory Scale 25 g batch): 21.2 um

SMILES: CCN(C(=O)c1c([O-])c2c(Cl)cccc2n(C)c1=O)c1ccccc1.[Na+] [Laboratory Scale Batch A]
- PSD D(0.1) [1, 6]: 2.3 μm

SMILES: CCN(C(=O)c1c([O-])c2c(Cl)cccc2n(C)c1=O)c1ccccc1.[Na+] [Laboratory Scale Batch B]
- PSD D(0.1) [1, 6]: 2.6 μm

SMILES: CCN(C(=O)c1c(O)c2c(Cl)cccc2n(C)c1=O)c1ccccc1 [Laquinimod, N-ethyl-N-phenyl-1,2,-dihydro-4-hydroxy-5-chloro-1-methyl-2-oxoquinoline-3-carboxamide]
- effectiveness in aEAE model [4]: effective

SMILES: CCN(C(=O)c1c([O-])c2c(Cl)cccc2n(C)c1=O)c1ccccc1.[Na+] [Pilot Scale Batch A]
- D(0.9), PSD by Malvern [1]: 33.8 um
- d(0.1), PSD by Malvern [1]: 3.3 um
- d(0.5), PSD by Malvern [1]: 12.9 um

SMILES: CCN(C(=O)c1c([O-])c2c(Cl)cccc2n(C)c1=O)c1ccccc1.[Na+] [Pilot Scale Batch B]
- D(0.9), PSD by Malvern [1]: 33.9 um
- d(0.1), PSD by Malvern [1]: 4.1 um
- d(0.5), PSD by Malvern [1]: 13.5 um

SMILES: CCN(C(=O)c1c([O-])c2c(Cl)cccc2n(C)c1=O)c1ccccc1.[Na+] [crude laquinimod sodium]
- d(0.1) [1, 7]: 1-2 μ
- d(0.5) [1, 7]: 5-11 μ
- d(0.9) [1, 7]: 20-35 μ
